Experimental data taken from US12240838B2, “Inhibiting agents for Bruton's tyrosine kinase” (BIOGEN MA INC., priority 2019, dated 2025).

Legend:
BTK [1] = target: T1, BTK (Homo sapiens (Human), UniProt Q06187); assay: In Vitro BTK Kinase Assay: BTK-POLYGAT-LS ASSAY; format: biochemical; settings: ATP 10 μM, polyGAT 100 nM, BTK 0.25 nM, 30 minutes
Protocol: The purpose of the BTK in vitro assay is to determine compound potency against BTK through the measurement of IC50. […] The BTK kinase reaction was done in a black 96 well plate (costar 3694). For a typical assay, a 24 μL aliquot of a ATP/peptide master mix (final concentration; ATP 10 μM, polyGAT 100 nM) in kinase buffer (10 mM Tris-HCl pH 7.5, 10 mM MgCl2, 200 μM […], 5 mM DTT, 0.01% Triton X-100, and 0.2 mg/ml casein) is added to each well. Next, […] of a 4-fold, 40× compound titration in 100% DMSO solvent is added, followed by adding 15 μL of BTK enzyme mix in 1× kinase buffer (with a final concentration of 0.25 nM). The assay is incubated for 30 minutes before being stopped with […] of a 50 mM EDTA solution. Aliquots (5 μL) of the kinase reaction are transferred to a low volume white 384 well plate (Coming 3674), and […] of a 2× detection buffer (Invitrogen PV3574, with 4 nM Tb-PY20 antibody, Invitrogen PV3552) is added. The plate is covered and incubated for 45 minutes at room temperature. Time resolved fluorescence (TRF) on Molecular Devices M5 (332 nm excitation; 488 nm emission; 518 nm fluorescein emission) is measured.

BTK [2] = target: T1, BTK; assay: In Vitro PD Assay in Human Whole Blood (pBTK assay); format: cell-based; settings: 37° C. for 30 min, 50% inhibition of ECL signal
Protocol: Human heparinized venous blood was purchased from Bioreclamation, Inc. or SeraCare Life Sciences and shipped overnight. Whole blood was aliquoted into 96-well plate and “spiked” with serial dilutions of test compound in DMSO or with DMSO without drug. The final concentration of DMSO in all wells was 0.1%. The plate was incubated at 37° C. for 30 min. Lysis buffer containing protease and phosphatase inhibitors was added to the drug-containing samples and one of the DMSO-only samples (+PPi, high control), while lysis buffer containing protease inhibitors was added to the other DMSO-only samples (−PPi, low control). All of the lysed whole blood samples were subjected to the total BTK capture and phosphotyrosine detection method described in US20160311802, incorporated herein by reference.

T1 sequence (Q06187 whole entry): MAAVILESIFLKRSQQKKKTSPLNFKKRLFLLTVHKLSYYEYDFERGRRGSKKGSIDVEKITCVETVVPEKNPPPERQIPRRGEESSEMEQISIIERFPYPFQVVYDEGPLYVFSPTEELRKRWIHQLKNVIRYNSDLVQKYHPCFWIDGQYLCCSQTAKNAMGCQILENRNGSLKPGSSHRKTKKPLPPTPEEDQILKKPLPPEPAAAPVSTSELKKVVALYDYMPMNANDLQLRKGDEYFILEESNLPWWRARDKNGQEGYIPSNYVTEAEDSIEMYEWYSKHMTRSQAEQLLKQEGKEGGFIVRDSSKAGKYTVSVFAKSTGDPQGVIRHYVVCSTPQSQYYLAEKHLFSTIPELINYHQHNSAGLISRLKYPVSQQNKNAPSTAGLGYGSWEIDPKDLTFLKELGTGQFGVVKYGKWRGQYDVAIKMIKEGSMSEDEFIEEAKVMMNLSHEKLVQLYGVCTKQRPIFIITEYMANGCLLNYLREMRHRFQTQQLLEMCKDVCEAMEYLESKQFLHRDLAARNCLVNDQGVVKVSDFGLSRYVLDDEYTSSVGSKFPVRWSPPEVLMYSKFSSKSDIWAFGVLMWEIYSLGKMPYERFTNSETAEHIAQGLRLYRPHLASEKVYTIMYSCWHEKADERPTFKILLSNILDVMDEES

**Q.** Which results are given for `CC(C)(C)c1nc(C(=O)NCc2ccc(-c3ccnc(NC(=O)C4CC4)c3)c(F)c2C2CC2)no1` [Compound 33, 5-(tert-butyl)-N-(4-(2-(cyclopropanecarboxamido)pyridin-4-yl)-2-cyclopropyl-3-fluorobenzyl)-1,2,4-oxadiazole-3-carboxamide]?
**A.** IC50 (BTK [1]): ≤ 1 nM; IC50 (BTK [2]): 500 to 10000 nM

**Q.** For `CC(C)(C)c1nc(C(=O)NCc2ccc(-c3ccnc(NC(=O)C4CC4)c3)c(F)c2C(F)(F)F)no1` [Compound 86, 5-(tert-butyl)-N-(4-(2-(cyclopropanecarboxamido)pyridin-4-yl)-3-fluoro-2-(trifluoromethyl)benzyl)-1,2,4-oxadiazole-3-carboxamide], which IC50 (BTK [1]) is on record?
**A.** The IC50 was no more than 1 nM.

**Q.** For `Cc1cc(-c2ccnc(NC(=O)C3CC3)c2)ccc1CNC(=O)c1nnc(C(C)(C)C)o1` [Compound 90, 5-(tert-butyl)-N-(4-(2-(cyclopropanecarboxamido)pyridin-4-yl)-2-methylbenzyl)-1,3,4-oxadiazole-2-carboxamide], which IC50 (BTK [1]) is on record?
**A.** The IC50 was 1 to 10 nM.

**Q.** What about the IC50 (BTK [2]) of the same compound?
**A.** The IC50 was 100 to 500 nM.

**Q.** Which results are given for `C[C@@H](NC(=O)c1noc(C(C)(C)C)n1)c1ccc(-c2ccnc(NC(=O)C3CC3)c2)cc1C(F)(F)F` [Compound 78, (R)-5-(tert-butyl)-N-(1-(4-(2-(cyclopropanecarboxamido)pyridin-4-yl)-2-(trifluoromethyl)phenyl)ethyl)-1,2,4-oxadiazole-3-carboxamide]?
**A.** IC50 (BTK [1]): ≤ 1 nM; IC50 (BTK [2]): 100 to 500 nM

**Q.** What does the source list for `Cc1cc(-c2cc(NC(=O)C3CC3)ncc2C(F)(F)F)ccc1CNC(=O)c1noc(C(C)(C)C)n1` [Compound 26, 5-(tert-butyl)-N-(4-(2-(cyclopropanecarboxamido)-5-(trifluoromethyl)pyridin-4-yl)-2-methylbenzyl)-1,2,4-oxadiazole-3-carboxamide]?
**A.** IC50 (BTK [1]): 1 to 10 nM; IC50 (BTK [2]): > 10000 nM

**Q.** How did the IC50 (BTK [1]) turn out when `CC(C)(C)c1noc(C(=O)N[C@@H]2CCCCc3cc(-c4ccnc(NC(=O)C5CC5)c4)ccc32)n1` [Compound 18, (R)-3-(tert-butyl)-N-(2-(2-(cyclopropanecarboxamido)pyridin-4-yl)-6,7,8,9-tetrahydro-5H-benzo[7]annulen-5-yl)-1,2,4-oxadiazole-5-carboxamide] was run?
**A.** Its IC50 is no more than 1 nM.

**Q.** What about the IC50 (BTK [2]) of the same compound?
**A.** Its IC50 is no more than 100 nM.

**Q.** With `Cc1cc(-c2cc(NC(=O)C3CC3)ncc2F)c(F)cc1CNC(=O)c1noc(C(C)(C)C)n1` [Compound 103, 5-(tert-butyl)-N-(4-(2-(cyclopropanecarboxamido)5-fluoropyridin-4-yl)-5-fluoro-2-methylbenzyl)-1,2,4-oxadiazole-3-carboxamide] as the compound, how does the IC50 (BTK [1]) read?
**A.** Its IC50 is no more than 1 nM.

**Q.** And the IC50 (BTK [2])?
**A.** Its IC50 is 100 to 500 nM.

**Q.** `CC(C)(C)c1noc(C(=O)NCc2ccc(-c3ccnc(NC(=O)C4CC4)c3)c(F)c2C(F)F)n1` [Compound 27, 3-(tert-butyl)-N-(4-(2-(cyclopropanecarboxamido)pyridin-4-yl)-2-(difluoromethyl)-3-fluorobenzyl)-1,2,4-oxadiazole-5-carboxamide] was tested. Which IC50 (BTK [1]) did it give?
**A.** The IC50 was no more than 1 nM.

**Q.** What does the source list for `C[C@@H](NC(=O)c1nc(C(C)(C)C)no1)c1ccc(-c2ccnc(NC(=O)C3CC3)c2)cc1C(F)(F)F` [Compound 79, (R)-3-(tert-butyl)-N-(1-(4-(2-(cyclopropanecarboxamido)pyridin-4-yl)-2-(trifluoromethyl)phenyl)ethyl)-1,2,4-oxadiazole-5-carboxamide]?
**A.** IC50 (BTK [1]): ≤ 1 nM; IC50 (BTK [2]): 100 to 500 nM

**Q.** `CC(C)(C)c1nc(C(=O)N[C@@H]2CCN(CC(F)(F)F)Cc3cc(-c4ccnc(NC(=O)C5CC5)c4)ccc32)no1` [Compound 10, (R)-5-(tert-butyl)-N-(8-(2-(cyclopropanecarboxamido)pyridin-4-yl)-2-(2,2,2-trifluoroethyl)-2,3,4,5-tetrahydro-1H-benzo[c]azepin-5-yl)-1,2,4-oxadiazole-3-carboxamide] was tested. Which IC50 (BTK [1]) did it give?
**A.** The IC50 was no more than 1 nM.

**Q.** What about the IC50 (BTK [2]) of the same compound?
**A.** The IC50 was no more than 100 nM.

**Q.** With `Cc1cc(-c2ccnc(NC(=O)C3C4COCC43)c2)ccc1CNC(=O)c1noc(C(C)(C)C)n1` (stereo not drawn) [Compound 23] as the compound, how does the IC50 (BTK [1]) read?
**A.** Its IC50 is 1 to 10 nM.

**Q.** For `CC(C)(C)c1nc(C(=O)N[C@@H]2CCCCc3c2ccc(-c2ccnc(NC(=O)C4CC4)c2)c3F)no1` [Compound 40, (R)-5-(tert-butyl)-N-(2-(2-(cyclopropanecarboxamido)pyridin-4-yl)-1-fluoro-6,7,8,9-tetrahydro-5H-benzo[7]annulen-5-yl)-1,2,4-oxadiazole-3-carboxamide], which IC50 (BTK [1]) is on record?
**A.** The IC50 was no more than 1 nM.

**Q.** Which IC50 (BTK [1]) does the source give for `Cc1c([C@@H](C)NC(=O)c2nc(C(C)(C)C)no2)ccc(-c2ccnc(NC(=O)C3CC3)c2)c1F` [Compound 66, (R)-3-(tert-butyl)-N-(1-(4-(2-(cyclopropanecarboxamido)pyridin-4-yl)-3-fluoro-2-methylphenyl)ethyl)-1,2,4-oxadiazole-5-carboxamide] here?
**A.** Its IC50 is no more than 1 nM.

**Q.** Which IC50 (BTK [1]) does the source give for `Cc1cc(-c2ccnc(NC(=O)C3CC3C(F)(F)F)c2)ccc1CNC(=O)c1noc(C(C)(C)C)n1` (stereo not drawn) [Compound 25, 5-(tert-butyl)-N-(2-methyl-4-(2-(2-(trifluoromethyl)cyclopropane-1-carboxamido)pyridin-4-yl)benzyl)-1,2,4-oxadiazole-3-carboxamide] here?
**A.** The IC50 was 1 to 10 nM.

**Q.** With `COc1cc(-c2ccnc(NC(=O)C3CC3)c2)ccc1CNC(=O)c1noc(C(C)(C)C)n1` [Compound 87, 5-(tert-butyl)-N-(4-(2-(cyclopropanecarboxamido)pyridin-4-yl)-2-methoxybenzyl)-1,2,4-oxadiazole-3-carboxamide] as the compound, how does the IC50 (BTK [1]) read?
**A.** Its IC50 is no more than 1 nM.

**Q.** For `CC(C)(C)c1nc(C(=O)NCc2cc(F)c(-c3ccnc(NC(=O)C4CC4)c3)cc2C(F)(F)F)no1` [Compound 62, 5-(tert-butyl)-N-(4-(2-(cyclopropanecarboxamido)pyridin-4-yl)-5-fluoro-2-(trifluoromethyl)benzyl)-1,2,4-oxadiazole-3-carboxamide], which IC50 (BTK [2]) is on record?
**A.** The IC50 was 500 to 10000 nM.

**Q.** With `Cc1cc(-c2ccnc(NC(=O)C3CC3)c2)ccc1CNC(=O)c1cn(C(C)(C)C)cn1` [Compound 95, 1-(tert-butyl)-N-(4-(2-(cyclopropanecarboxamido)pyridin-4-yl)-2-methylbenzyl)-1H-imidazole-4-carboxamide] as the compound, how does the IC50 (BTK [1]) read?
**A.** The IC50 was 10 to 1000 nM.

**Q.** `CC(C)(C)c1nc(C(=O)N[C@@H]2CCCCc3cc(-c4ccnc(NC(=O)C5CC5)c4)c(F)cc32)no1` [Compound 24, (R)-5-(tert-butyl)-N-(2-(2-(cyclopropanecarboxamido)pyridin-4-yl)-3-fluoro-6,7,8,9-tetrahydro-5H-benzo[7]annulen-5-yl)-1,2,4-oxadiazole-3-carboxamide] was tested. Which IC50 (BTK [1]) did it give?
**A.** The IC50 was no more than 1 nM.

**Q.** Which IC50 (BTK [1]) does the source give for `C[C@@H](NC(=O)c1noc(C(C)(C)C)n1)c1ccc(-c2ccnc(NC(=O)C3CC3)c2)c(F)c1Cl` [Compound 74, (R)-5-(tert-butyl)-N-(1-(2-chloro-4-(2-(cyclopropanecarboxamido)pyridin-4-yl)-3-fluorophenyl)ethyl)-1,2,4-oxadiazole-3-carboxamide] here?
**A.** Its IC50 is no more than 1 nM.

**Q.** Which IC50 (BTK [1]) does the source give for `Cc1cc(-c2ccnc(NC(=O)C3CC3)c2)ccc1CNC(=O)c1nn(C(C)(C)C)cc1F` [Compound 28, 1-(tert-butyl)-N-(4-(2-(cyclopropanecarboxamido)pyridin-4-yl)-2-methylbenzyl)-4-fluoro-1H-pyrazole-3-carboxamide] here?
**A.** Its IC50 is no more than 1 nM.

**Q.** For `C[C@@H](NC(=O)c1nc(C(C)(C)C)no1)c1ccc(-c2ccnc(NC(=O)C3CC3)c2)c(F)c1Cl` [Compound 75, (R)-3-(tert-butyl)-N-(1-(2-chloro-4-(2-(cyclopropanecarboxamido)pyridin-4-yl)-3-fluorophenyl)ethyl)-1,2,4-oxadiazole-5-carboxamide], which IC50 (BTK [1]) is on record?
**A.** The IC50 was no more than 1 nM.

**Q.** `CC(C)(C)c1noc(C(=O)N[C@@H]2CCCCc3cc(-c4ccnc(NC(=O)[C@@H]5C[C@@H]5C#N)c4)ccc32)n1` [Compound 50, 3-(tert-butyl)-N-((R)-2-(2-((1R,2S)-2-cyanocyclopropane-1-carboxamido)pyridin-4-yl)-6,7,8,9-tetrahydro-5H-benzo[7]annulen-5-yl)-1,2,4-oxadiazole-5-carboxamide] was tested. Which IC50 (BTK [1]) did it give?
**A.** The IC50 was no more than 1 nM.

**Q.** For `Cc1cc(-c2ccnc(NC(=O)C3CC3)c2)c(F)cc1[C@@H](C)NC(=O)c1noc(C(C)(C)C)n1` [Compound 85, (R)-5-(tert-butyl)-N-(1-(4-(2-(cyclopropanecarboxamido)pyridin-4-yl)-5-fluoro-2-methylphenyl)ethyl)-1,2,4-oxadiazole-3-carboxamide], which IC50 (BTK [1]) is on record?
**A.** The IC50 was no more than 1 nM.

**Q.** How did the IC50 (BTK [1]) turn out when `Cc1cc(-c2ccnc(NC(=O)[C@H]3C[C@H]3F)c2)ccc1CNC(=O)c1noc(C(C)(C)C)n1` (single isomer, unassigned) [Compound 4] was run?
**A.** Its IC50 is no more than 1 nM.

**Q.** For `CC(C)(C)c1nc(C(=O)NCc2ccc(-c3ccnc(NC(=O)C4CC4)c3)cc2C2CCC2)no1` [Compound 88, 5-(tert-butyl)-N-(2-cyclobutyl-4-(2-(cyclopropanecarboxamido)pyridin-4-yl)benzyl)-1,2,4-oxadiazole-3-carboxamide], which IC50 (BTK [1]) is on record?
**A.** The IC50 was no more than 1 nM.
